“And” between values parts separate entries of the source, which are not always exact repeats. Identical values can stand only once. Records with an inconclusive call do not appear.

The test relates to MX-1 breast xenograft, intrarenal, nude mice, tumor weight. Put plainly: NCI In Vivo Anticancer Drug Screen. Data for tumor model Human Mammary Carcinoma MX-1 Xenograft (intrarenal inoculation) in NU/NU BALB/C (nude) mice. The note with it: endpoint: mean tumor weight change, higher = larger tumour. A digest of the protocol:
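Compounds were given to mice carrying transplanted tumors, and tumor size or survival was measured. Each value is the treated-group measurement (T) divided by the vehicle-treated control-group measurement (C).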
On the technique in general: Xenograft models place foreign cells or tissue in a host animal.

As to `OC1OCC(COc2ccc(Cl)cc2)OC1O` (configuration not stated), the T/C reads like this: (dose: 100.0 mg/kg/injection, schedule: Q04DX003 (ip), vehicle: saline with Tween-80) 78 % of control; (dose: 200.0 mg/kg/injection, schedule: Q04DX003 (ip), vehicle: saline with Tween-80) 75 % of control; (dose: 400.0 mg/kg/injection, schedule: Q04DX003 (ip), vehicle: saline with Tween-80) 92 % of control.

Regarding `N[C@@H](Cc1ccc(N(CCCl)CCCl)cc1)C(=O)O`, the T/C is 1 % of control and 3 % of control (dose: 1.0 mg/kg/injection, schedule: Q01DX010 (sc), vehicle: saline); 88 % of control (dose: 1.0 mg/kg/injection, schedule: Q04DX003 (sc), vehicle: saline); 49 % of control (dose: 1.5 mg/kg/injection, schedule: Q04DX003 (sc), vehicle: saline); -85 % of control and -79 % of control (dose: 2.0 mg/kg/injection, schedule: Q01DX010 (sc), vehicle: saline); -48 % of control and -38 % of control (dose: 2.0 mg/kg/injection, schedule: Q04DX003 (ip), vehicle: saline with Tween-80); 17 % of control (dose: 2.0 mg/kg/injection, schedule: Q04DX003 (sc), vehicle: saline). The T/C by setting is: (dose: 3.0 mg/kg/injection, schedule: Q04DX003 (sc), vehicle: saline) 3 % of control; (dose: 4.0 mg/kg/injection, schedule: Q01DX010 (sc), vehicle: saline) -92 % of control and -70 % of control; (dose: 4.0 mg/kg/injection, schedule: Q04DX003 (ip), vehicle: saline with Tween-80) -94 % of control and -93 % of control; (dose: 4.0 mg/kg/injection, schedule: Q04DX003 (sc), vehicle: saline) -9 % of control; (dose: 6.0 mg/kg/injection, schedule: Q04DX003 (sc), vehicle: saline) -87 % of control; (dose: 8.0 mg/kg/injection, schedule: Q01DX010 (sc), vehicle: saline) -87 % of control. Also, the T/C (dose: 8.0 mg/kg/injection, schedule: Q04DX003 (ip), vehicle: saline with Tween-80) is -100 % of control and -99 % of control; the T/C (dose: 8.0 mg/kg/injection, schedule: Q04DX003 (sc), vehicle: saline) was -89 % of control; the T/C (dose: 12.0 mg/kg/injection, schedule: Q04DX003 (sc), vehicle: saline) was -96 % of control.

As for `CC1(C)CC(=O)C(CSC(=O)c2ccccc2)C(=O)C1`, the T/C runs as follows: (dose: 75.0 mg/kg/injection, schedule: Q04DX003 (sc), vehicle: Klucel (hydroxypropylcellulose) (HPC)) 101 % of control; (dose: 150.0 mg/kg/injection, schedule: Q04DX003 (sc), vehicle: Klucel (hydroxypropylcellulose) (HPC)) 101 % of control; (dose: 300.0 mg/kg/injection, schedule: Q04DX003 (sc), vehicle: Klucel (hydroxypropylcellulose) (HPC)) 101 % of control.

Consider `NC(Cc1ccc(N(CCCl)CCCl)cc1)C(=O)O` (configuration not stated), for which the T/C was -85 % of control and -98 % of control (dose: 10.0 mg/kg/injection, schedule: Q04DX003 (sc), vehicle: Klucel (hydroxypropylcellulose) (HPC)); -90 % of control (dose: 20.0 mg/kg/injection, schedule: Q04DX003 (sc), vehicle: Klucel (hydroxypropylcellulose) (HPC)).

On to `COc1cccc2c1C(=O)c1c(O)c3c(c(O)c1C2=O)C[C@@](O)(C(=O)CO)C[C@@H]3OC1CC(N)C(O)C(C)O1` (some centres not stated), for which the T/C is, setting by setting: (dose: 2.0 mg/kg/injection, schedule: Q04DX003 (ip), vehicle: water) 33 % of control; (dose: 4.0 mg/kg/injection, schedule: Q04DX003 (ip), vehicle: water) 7 % of control; (dose: 8.0 mg/kg/injection, schedule: Q04DX003 (ip), vehicle: water) -88 % of control.

Take `CC1CN1P1(N2CC2C)=NP(N2CC2C)(N2CC2C)=NP(N2CC2C)(N2CC2C)=N1` (configuration not stated): the T/C (dose: 75.0 mg/kg/injection, schedule: Q04DX003 (sc), vehicle: saline) is 51 % of control and the T/C (dose: 150.0 mg/kg/injection, schedule: Q04DX003 (sc), vehicle: saline) is 3 % of control.

Consider `CCC(/C=C/C1OC(=O)C=CC1C)=C\C(C)C/C=C/C(C)=C/C(C)C(=O)C(C)C(O)C(C)C/C(C)=C/C(=O)O` (configuration not stated), for which the T/C was 114 % of control (dose: 1.0 mg/kg/injection, schedule: Q04DX003 (ip), vehicle: saline + alcohol); 109 % of control (dose: 2.0 mg/kg/injection, schedule: Q04DX003 (ip), vehicle: saline + alcohol); 71 % of control (dose: 4.0 mg/kg/injection, schedule: Q04DX003 (ip), vehicle: saline + alcohol); 119 % of control (dose: 75.0 micrograms/kg/injection, schedule: Q04DX003 (ip), vehicle: saline + alcohol); 114 % of control (dose: 150.0 micrograms/kg/injection, schedule: Q04DX003 (ip), vehicle: saline + alcohol); 107 % of control (dose: 300.0 micrograms/kg/injection, schedule: Q04DX003 (ip), vehicle: saline + alcohol). The T/C (dose: 600.0 micrograms/kg/injection, schedule: Q04DX003 (ip), vehicle: saline + alcohol) is 102 % of control.

Take `Nc1ncnc2c1c1c(=O)[nH]c(=O)[nH]c1n2C1OC(CO)C(O)C1O` (configuration not stated): the T/C (dose: 112.5 mg/kg/injection, schedule: Q04DX003 (sc), vehicle: distilled water + Tween-80) was 62 % of control; the T/C (dose: 225.0 mg/kg/injection, schedule: Q04DX003 (sc), vehicle: distilled water + Tween-80) is 63 % of control; the T/C (dose: 450.0 mg/kg/injection, schedule: Q04DX003 (sc), vehicle: distilled water + Tween-80) was 31 % of control; the T/C (dose: 900.0 mg/kg/injection, schedule: Q04DX003 (sc), vehicle: distilled water + Tween-80) is 25 % of control.

For `CC[C@@]1(O)C(=O)OCc2c1cc1n(c2=O)Cc2cc3ccccc3nc2-1`, the T/C (dose: 10.0 mg/kg/injection, schedule: Q04DX003 (sc), vehicle: saline with Tween-80) is -84 % of control and -100 % of control; the T/C (dose: 20.0 mg/kg/injection, schedule: Q04DX003 (sc), vehicle: saline with Tween-80) was -100 % of control and -95 % of control; the T/C (dose: 40.0 mg/kg/injection, schedule: Q04DX003 (sc), vehicle: saline with Tween-80) is -100 % of control.

On to `CN(C)CCCOc1nc2c(c(=O)n(C)c(=O)n2C)n1C` (tested in a mixture with another compound), for which the T/C is 75 % of control (dose: 37.5 mg/kg/injection, schedule: Q04DX003 (ip), vehicle: Klucel (hydroxypropylcellulose) (HPC)); 63 % of control and 65 % of control (dose: 75.0 mg/kg/injection, schedule: Q04DX003 (ip), vehicle: Klucel (hydroxypropylcellulose) (HPC)); 58 % of control and 62 % of control (dose: 150.0 mg/kg/injection, schedule: Q04DX003 (ip), vehicle: Klucel (hydroxypropylcellulose) (HPC)); 19 % of control and 20 % of control (dose: 300.0 mg/kg/injection, schedule: Q04DX003 (ip), vehicle: Klucel (hydroxypropylcellulose) (HPC)).

As for `Nc1ccc(C(=O)Nc2ccccc2N)cc1`, the T/C is 91 % of control (dose: 25.0 mg/kg/injection, schedule: Q01DX010 (ip), vehicle: saline with Tween-80); 87 % of control (dose: 50.0 mg/kg/injection, schedule: Q01DX010 (ip), vehicle: saline with Tween-80); 84 % of control (dose: 100.0 mg/kg/injection, schedule: Q01DX010 (ip), vehicle: saline with Tween-80); 36 % of control (dose: 200.0 mg/kg/injection, schedule: Q01DX010 (ip), vehicle: saline with Tween-80).

For `N#Cc1c(N)[nH]c2ccc(Sc3ccccc3)cc12`, the T/C (dose: 30.0 mg/kg/injection, schedule: Q04DX003 (ip), vehicle: saline with Tween-80) is 92 % of control; the T/C (dose: 60.0 mg/kg/injection, schedule: Q04DX003 (ip), vehicle: saline with Tween-80) was 88 % of control; the T/C (dose: 120.0 mg/kg/injection, schedule: Q04DX003 (ip), vehicle: saline with Tween-80) was 75 % of control.

For `N#CC(C#N)=NNc1ccc2cn[nH]c2c1`, the T/C is, setting by setting: (dose: 12.5 mg/kg/injection, schedule: Q04DX003 (ip), vehicle: Klucel (hydroxypropylcellulose) (HPC)) 94 % of control; (dose: 50.0 mg/kg/injection, schedule: Q04DX003 (ip), vehicle: Klucel (hydroxypropylcellulose) (HPC)) 174 % of control; (dose: 100.0 mg/kg/injection, schedule: Q04DX003 (ip), vehicle: Klucel (hydroxypropylcellulose) (HPC)) 106 % of control.

For the molecule `CSc1ncnc2c1ncn2C1OC(CO)C(O)C1O` (configuration not stated), the T/C (dose: 75.0 mg/kg/injection, schedule: Q04DX003 (sc), vehicle: saline + alcohol) is 1 % of control and the T/C (dose: 150.0 mg/kg/injection, schedule: Q04DX003 (sc), vehicle: saline + alcohol) is -97 % of control.

In the case of `COc1cc2c(c(OC)c1OC)-c1ccc(OC)c(=O)cc1[C@@H](NC(C)=O)CC2`, the T/C (dose: 0.5 mg/kg/injection, schedule: Q04DX003 (ip), vehicle: saline) is 41 % of control and 48 % of control; the T/C (dose: 1.0 mg/kg/injection, schedule: Q04DX003 (ip), vehicle: saline) was 17 % of control and 20 % of control.

As to `CN(CN1C(=O)CCC1=O)CN1C(=O)CCC1=O`, the T/C was 91 % of control (dose: 150.0 mg/kg/injection, schedule: Q04DX003 (ip), vehicle: saline) and 61 % of control (dose: 300.0 mg/kg/injection, schedule: Q04DX003 (ip), vehicle: saline).
